Experimental data as given in US20050107430A1, “Antimicrobial and antiviral compounds” (priority 2003, published 2005).
≈ marks a conversion by molar mass, not a printed value. Like-named read-outs stand apart in the source and are kept apart here. Marks after values point to notes of the source that are not given here.

Key:
[1] = test system: E. coli ATCC 25922; test: NCCLS MIC/MBC microdilution, E. coli; assay type: cell-based; conditions: plate EC
Text: (§1) [BBL Mueller Hinton Broth].

[2] = test system: Enterococcus faecium; test: NCCLS MIC/MBC microdilution, Enterococcus (vancomycin sensitive); assay type: cell-based; conditions: for MBC: read at 48 hr
Text: as §1

[3] = test system: S. aureus; test: NCCLS MIC/MBC microdilution, S. aureus patient isolates; assay type: cell-based, Staphylococcus aureus; conditions: for MBC: read at 48 hr
Text: as §1

[4] = test system: human fibroblasts; test: Toxicity study with human fibroblasts; assay type: cell-based
[5] = test system: BDF1′ mice
[6] = test system: VRE (Vancomycin resistant Enterococci); test: NCCLS MIC/MBC microdilution, VRE; conditions: for MIC, VRE enterococcus (E. faecalis): Table 3, 24 h and 48 h same results; for MIC: plate D4, VRE patient isolate
Description: (§2) Standard NCCLS (e.g., National Committee for Clinical Laboratory Standards) methods for determining MIC (e.g., minimum inhibitory concentration) and MBC (e.g., minimum bactericidal concentration) were used. 96 well micro-well plates were placed in a humid chamber and frozen at −70° C. [BBL Mueller Hinton Broth]. Drugs (e.g., antimicrobial compounds of the present invention) were added to a series of wells through 2 fold serial dilutions. 100 μl of a 2×10^−3 M solution of the respective Tx compounds was added to the first well in a series. 100 μl of the inoculum (e.g., microorganism) was added to the well. […] For example, the concentration in well 8 would be less than the concentration of the same drug in well 7. Inoculum (e.g., microorganism) that was added to the wells was prepared from 24 hour growth of an isolate on 5% sheep blood/Columbia agar plates. 5 to 10 representative colonies were then picked from the plates and added to saline and adjusted to 0.5 McFarland turbidity. Next the sample was diluted 1:100 in saline, such that 100 μl of the diluted sample contained approximately 1×10^5 microbes. 100 μl of the diluted sample was added to each well in a series of drug concentrations. Once the cells were added to the wells, the well plates were incubated at 35° C. without CO2 for 48 hrs and at this time the minimum bactericidal concentration was determined.
(§3) The MIC of Tx-118, Tx-147, and Tx-197 for certain Staphylococcus aureus (MRSA), Pseudomonas aeruginosa, Stenotrophomonas maltophilia, and VRE Enterococcus faecalis was determined using standard NCCLS methods. The first well in each series of decreasing drug concentrations contained 1×10^−4 M of a drug. The drug was diluted by serial two fold dilutions through all 12 wells in a series. There was a final DMSO concentration of 2% in the first well and 1% in the second well, etc. Tests with Tx-118 and Tx-197 were performed in triplicate, and tests with Tx-147 were performed in duplicate.

[7] = test system: MRSA (oxacillin/methicillin resistant S. aureus); test: NCCLS MIC/MBC microdilution, MRSA; conditions: for MIC, MRSA (methicillin resistant): Table 3, 24 h and 48 h same results; for MBC: read at 48 hr, 10^−3 kill
Description: as §2, §3

[8] = test system: P. aeruginosa; test: NCCLS MIC/MBC microdilution, P. aeruginosa; design: MIC: key to the marks not given beside the values; conditions: for MIC, P. aeruginosa: Table 3, P. aeroginosa is L13 from Table 2
[9] = test system: Stenotrophomonas maltophilia; test: NCCLS MIC/MBC microdilution, S. maltophilia; conditions: for MIC, Stenotrophomonas maltophilia: Table 3, 24 h and 48 h same results; for MBC: read at 48 hr, 10^−3 kill
Description: as §2, §3

[10] = test system: Vancomycin resistant S. aureus ATCC700699 and 700788 (VRSA); test: NCCLS MIC/MBC microdilution, vancomycin resistant S. aureus; assay type: cell-based, Staphylococcus aureus; conditions: for MIC, VRSA (ATCC 700699) / MIC, VRSA (ATCC 700788): Table 3, 24 h and 48 h same results; for MBC: read at 48 hr
Text: as §1

[11] = test system: Mycobacterium chelonae; test: MIC, Mycobacterium chelonae; assay type: cell-based; conditions: Table 3
[12] = test system: Candida albicans; test: MIC, Candida albicans; assay type: cell-based
[13] = test system: chloroquin (CQ) resistant strain of Plasmodium falciparum (Pf); test: In vitro efficacy against chloroquin resistant Plasmodium falciparum; assay type: cell-based
Description: Tx-5 and Tx-84 were tested for in vitro efficacy against a chloroquin (CQ) resistant strain of Plasmodium falciparum (Pf). The tests were performed in triplicate at a wide variety of concentrations and evaluated for effect compared with CQ.

[14] = test system: Mycobacterium tuberculosis; conditions: Table 3
[15] = test system: Aspergillus fumigatus; test: MIC, Aspergillus fumigatus; assay type: cell-based; conditions: Table 3
[16] = test system: Fusarium; test: MIC, Fusarium; assay type: cell-based; conditions: Table 3
[17] = plate E348, Enterococcus faecium patient isolate
[18] = plate E502, Enterococcus faecium ATCC 502806
[19] = plate E523, Enterococcus facium patient isolate
[20] = plate S332, S aureus patient isolate
[21] = plate S520, S aureus patient isolate penicillin resistant
[22] = plate K12, MRSA patient isolate
[23] = plate 37, P. aeruginosa sensitive isolate
[24] = plate ATCC, P. aeruginosa ATCC 27853
[25] = plate L13, P. aeruginosaR (multi-resistant)
[26] = plate C3, S. maltophilia patient isolate
[27] = plate I10, S. maltophilia patient isolate
[28] = plate J11, S. maltophilia patient isolate
[29] = plate 699, VancoR S. aureus ATCC700699
[30] = plate 788, VancoR S. aureus ATCC 700788

## O=C(CCC(=O)N1CCCCC1)Nc1cc2c(c3ccccc13)-c1ccc3ccccc3c1C2 [Tx-38]
[1]
  MIC: +++
[2]; [17]
  MIC: +++
[2]; [18]
  MIC: +++
[2]; [19]
  MIC: +++
[3]; [20]
  MIC: +++
[3]; [21]
  MIC: +++
[4]
  Toxicity/human fibroblasts (IC50): 12 ug/ml human fibroblasts
[5]; 30 mg/kg ip
  animal studies (ip), mortality: 30 mg/kg (no mort)
[6]
  MIC, VRE enterococcus (E. faecalis): No activity
  MIC: +++
[7]
  MIC, MRSA (methicillin resistant): No activity
[7]; plate A1, MRSA patient isolate
  MIC: +++^a
[7]; plate B2, MRSA patient isolate
  MIC: +++
[7]; plate E5, MRSA patient isolate
  MIC: +++
[7]; plate F6, MRSA patient isolate
  MIC: +++
[7]; plate G7, MRSA patient isolate
  MIC: +++
[7]; plate H9, MRSA patient isolate
  MIC: +++
[7]; [22]
  MIC: +++
[8]
  MIC, P. aeruginosa: No activity
[8]; [23]
  MIC: +++
[8]; [24]
  MIC: +++
[8]; [25]
  MIC: +++
[9]
  MIC, Stenotrophomonas maltophilia: No activity
[9]; [26]
  MIC: +++
[9]; [27]
  MIC: +++
[9]; [28]
  MIC: +++

## CN1CCN(C(=O)CCC(=O)Nc2cc3c(c4ccccc24)-c2ccc4ccccc4c2C3)CC1 [Tx-37, N-[11′-(13′H-Dibenzo[a,g]-fluorenyl)]-4-(4′N methyl-piperazinyl)-butane-1,4-dicarboxiamide]
[1]
  MIC: +++
[2]; [17]
  MIC: +++
[2]; [18]
  MIC: +++
[2]; [19]
  MIC: +++
[3]; [20]
  MIC: +++
[3]; [21]
  MIC: +++
[4]
  Toxicity/human fibroblasts (IC50): 5 µg/mL
[5]; 30 mg/kg ip
  animal studies (ip), mortality: 30 mg/kg (no mortality)
[6]
  MIC, VRE enterococcus (E. faecalis): 58 µg/mL (≈ 125 µM)
  MIC: 58 µg/mL (≈ 125 µM)
[7]
  MIC, MRSA (methicillin resistant): 1.8 to 7 µg/mL
[7]; plate A1, MRSA patient isolate
  MIC: 7.2 µg/mL (≈ 15.5 µM)
[7]; plate B2, MRSA patient isolate
  MIC: 3.6 µg/mL (≈ 7.77 µM)
[7]; plate E5, MRSA patient isolate
  MIC: 3.6 µg/mL (≈ 7.77 µM)
[7]; plate F6, MRSA patient isolate
  MIC: 1.8 µg/mL (≈ 3.88 µM)
[7]; plate G7, MRSA patient isolate
  MIC: 3.6 µg/mL (≈ 7.77 µM)
[7]; plate H9, MRSA patient isolate
  MIC: 7.2 µg/mL (≈ 15.5 µM)
[7]; [22]
  MIC: 7.2 µg/mL (≈ 15.5 µM)
[8]
  MIC, P. aeruginosa: No activity
[8]; [23]
  MIC: +++
[8]; [24]
  MIC: +++
[8]; [25]
  MIC: +++
[9]
  MIC, Stenotrophomonas maltophilia: No activity
[9]; [26]
  MIC: +++
[9]; [27]
  MIC: +++
[9]; [28]
  MIC: +++

## c1ccc2c(c1)ccc1c3ccc(NCCCCN4CCCCC4)cc3ccc21 [Tx-5, N-(2′-chrysenyl)-4-(1′-piperidinyl)-butane-1,4-diamine]
[1]
  MIC: 48/48 ug/ml
[1]; read at 48 hr, 10^−3 kill
  MBC: 48/48 ug/ml
[2]; [17]
  MIC: 1.5 µg/mL (≈ 3.92 µM)
  MBC: 3 µg/mL (≈ 7.84 µM)
[2]; [18]
  MIC: 1.5 µg/mL (≈ 3.92 µM)
  MBC: 6 µg/mL (≈ 15.7 µM)
[2]; [19]
  MIC: 1.5/1.5 ug/ml
  MBC: 1.5/1.5 ug/ml
[3]; [20]
  MIC: 0.4 µg/mL (≈ 1.05 µM)
  MBC: 0.7 µg/mL (≈ 1.83 µM)
[3]; [21]
  MIC: 1.5/1.5 ug/ml
[3]; plate S520, S aureus patient isolate
  MBC: 1.5/1.5 ug/ml
[10]
  MIC, VRSA (ATCC 700699): 1.5 µg/mL (≈ 3.92 µM)
  MIC, VRSA (ATCC 700788): 3.0 µg/mL (≈ 7.84 µM)
[10]; [29]
  MIC: 1.5 µg/mL (≈ 3.92 µM)
  MBC: 12 µg/mL (≈ 31.4 µM)
[10]; [30]
  MIC: 3 µg/mL (≈ 7.84 µM)
  MBC: 12 µg/mL (≈ 31.4 µM)
[11]
  MIC, Mycobacterium chelonae: 5 to 24 µg/mL
[12]; @ 15 ug/ml
  inhib. of Candida albicans: (90% inhib. @ 15 ug/ml)
[12]; Table 3
  MIC, Candida albicans: 30 µg/mL (≈ 78.4 µM)
[4]
  Toxicity/human fibroblasts (IC50): 6 µg/mL
[13]; CQ resistant P. falciparum, in vitro, triplicate
  IC50: 154 µM
[13]; in words
  inhibitory effect against Pf: weak effect
[14]
  MIC, Mycobacterium tuberculosis: 7 µg/mL (≈ 18.3 µM)
[5]; 35 mg/kg ip
  animal studies (ip), mortality: mg/kg (<10% mort)
[6]
  MIC, VRE enterococcus (E. faecalis): 3 µg/mL (≈ 7.84 µM)
  MIC: 3 µg/mL (≈ 7.84 µM)
[7]
  MIC, MRSA (methicillin resistant): 1.5 to 3 µg/mL
[7]; in words, Example 1
  bactericidal activity against Staphylococcus aureus (MRSA): bactericidal activity
[7]; plate A1, MRSA patient isolate
  MIC: 3/3 ug/ml
[7]; plate A1, MRSA
  MBC: 3/3 ug/ml
[7]; plate B2, MRSA patient isolate
  MIC: 1.5 µg/mL (≈ 3.92 µM)
[7]; plate E5, MRSA patient isolate
  MIC: 1.5 µg/mL (≈ 3.92 µM)
[7]; plate F6, MRSA patient isolate
  MIC: 1.5/1.5 ug/ml
[7]; plate F6, MRSA
  MBC: 1.5/1.5 ug/ml
[7]; plate G7, MRSA patient isolate
  MIC: 1.5 µg/mL (≈ 3.92 µM)
[7]; plate H9, MRSA patient isolate
  MIC: 3/3 ug/ml
[7]; plate H9, MRSA
  MBC: 3/3 ug/ml
[7]; [22]
  MIC: 3 µg/mL (≈ 7.84 µM)
[8]
  MIC, P. aeruginosa: No activity
[8]; [23]
  MIC: +++
[8]; [24]
  MIC: +++
[8]; [25]
  MIC: +++
[9]
  MIC, Stenotrophomonas maltophilia: 24 to 48 µg/mL
[9]; in words, Example 1
  bactericidal activity against Stenotrophomonas maltophilia: some bactericidal activity
[9]; [26]
  MIC: 48/48 ug/ml
[9]; plate C3, S. maltophilia
  MBC: 48/48 ug/ml
[9]; [27]
  MIC: 24/24 ug/ml
[9]; plate I10, S. maltophilia
  MBC: 24/24 ug/ml
[9]; [28]
  MIC: 48/48 ug/ml
[9]; plate J11, S. maltophilia
  MBC: 48/48 ug/ml

## c1ccc2c3c(ccc2c1)-c1c(cc(NCCCCN2CCCCC2)c2ccccc12)C3 [Tx-112]
[10]
  MIC, VRSA (ATCC 700699): 8 µg/mL (≈ 19 µM)
  MIC, VRSA (ATCC 700788): 8 µg/mL (≈ 19 µM)
[15]
  MIC, Aspergillus fumigatus: 6.5 µg/mL (≈ 15.5 µM)
[16]
  MIC, Fusarium: 3.3 µg/mL (≈ 7.85 µM)
[6]
  MIC, VRE enterococcus (E. faecalis): 210 µg/mL (≈ 499 µM)
[8]
  MIC, P. aeruginosa: No activity
